Test results reported in patent US20250134907A1, “FUSED DIAZEPINES AS AGONISTS OF THE INSULIN-LIKE 3 (INSL3) PEPTIDE RECEPTOR RXFP2 AND METHODS OF USE THEREOF” (The United States of America,as represented by the …, priority 2022, published 2025).
Blank lines part the entries; values can stand above or below the compound they belong to. Bridges are numbered along the chain shown (N, C = ends). Roman numbers before positions name the chains, in order. Where no end group is shown, it is not given here.

Experiments:
HEK293T cells = test: CellTiter-Glo cytotoxicity assay in HEK293T cells; type: cell-based, human; conditions: 24 h, 25 μM and 8.3 μM
Method: (§1) Cytotoxicity induced by the compounds in HEK293T cells and primary human calvarial osteoblasts (HCO) (ScienCell Research Laboratories, San Diego, CA) were tested using the […]-GLO™ Luminescent Cell Viability Assay (Promega, Madison, WI). This is a luminescence-based assay that determines viable cells by measuring cellular adenosine triphosphate (ATP) production. The luciferase enzyme requires ATP to catalyze the conversion of beetle luciferin to oxyluciferin and light. Thus, luciferase activity is proportional to ATP accumulation in the cells. For this assay, 96-well flat-bottom opaque plates seeded with HEK293T cells at 5,000 cells/well and HCO cells at 3,000 cells/well in 100 μL/well of growth medium (DMEM, 10% FBS, 1× Penicillin/Streptomycin). After incubating overnight at 37° C., 5% CO2 to allow attachment, cells were treated with 1 μL/well of compound (25-0.1 μM) or DMSO vehicle and incubated an additional 24 hours. Then cells were equilibrated for 30 minutes at room temperature and 100 μL/well of […]-GLO™ Reagent was added. Plates were placed on an orbital shaker for 2 minutes and incubated at room temperature for 10 minutes to stabilize the luminescent signal, which was read immediately after on a CLARIOstar plate reader (BMG Labtech, Germany). […] The HEK293T results represent the means±SEM of 3 technical replicates. The HCO results represent the means±SEM of 3 independent experiments.

[1] = test system: primary human calvarial osteoblasts (HCO); test: CellTiter-Glo cytotoxicity assay in HCO cells; type: cell-based; conditions: 24 h
Method: as §1

RXFP2 [2] = molecular target: T1, RXFP2 (Homo sapiens, UniProt Q8WXD0); test: HTRF cAMP assay in HEK293T cells stably expressing RXFP2 (HEK-RXFP2); type: cell-based; conditions: for % EFF vs. 1 nM INSL3 (b): normalized to 1 nM INSL3 cAMP response; for % EFF vs. 100 nM INSL3 (c): normalized to 100 nM INSL3 cAMP response
T1 construct: expressed in transfected cells
T1 sequence (Q8WXD0 whole entry): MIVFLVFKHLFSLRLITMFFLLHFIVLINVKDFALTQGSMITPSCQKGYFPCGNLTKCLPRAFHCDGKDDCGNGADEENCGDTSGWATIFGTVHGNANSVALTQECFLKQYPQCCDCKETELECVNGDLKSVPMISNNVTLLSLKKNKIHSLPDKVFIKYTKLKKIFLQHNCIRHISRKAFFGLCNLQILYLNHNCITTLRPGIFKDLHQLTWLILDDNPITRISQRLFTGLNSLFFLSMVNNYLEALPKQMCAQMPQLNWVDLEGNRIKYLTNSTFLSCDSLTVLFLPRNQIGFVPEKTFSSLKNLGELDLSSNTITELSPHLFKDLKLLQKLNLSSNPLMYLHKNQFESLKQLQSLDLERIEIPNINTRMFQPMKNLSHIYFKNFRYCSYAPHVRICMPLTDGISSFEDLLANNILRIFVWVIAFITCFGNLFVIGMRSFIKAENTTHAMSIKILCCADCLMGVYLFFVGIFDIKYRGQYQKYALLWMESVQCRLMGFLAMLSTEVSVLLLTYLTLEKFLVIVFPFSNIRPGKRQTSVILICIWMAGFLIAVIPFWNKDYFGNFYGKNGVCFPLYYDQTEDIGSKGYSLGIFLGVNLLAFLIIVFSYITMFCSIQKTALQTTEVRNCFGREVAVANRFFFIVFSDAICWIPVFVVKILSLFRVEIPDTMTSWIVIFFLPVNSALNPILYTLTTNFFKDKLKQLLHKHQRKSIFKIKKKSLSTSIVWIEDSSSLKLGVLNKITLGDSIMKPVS
Procedure, shortened: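 HEK-RXFP2 cells in serum-free DMEM were treated with compound up to 25 μM for 1 h at 37°C, and cAMP was read by HTRF immunoassay. Condition (a): 20,000 cells/well, 200 μM IBMX, normalized to 1 nM INSL3. Condition (b): 10,000 cells/well, 1 nM INSL3. Condition (c): 7,500 cells/well, no IBMX, 100 nM INSL3.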

RXFP2 [3] = molecular target: T1, RXFP2; test: Luciferase cAMP assay in HEK-CRE-Luc-RXFP2 cells; type: cell-based
Method: A confirmatory cAMP assay was done to eliminate false positives using a HEK293T-CRE-Luc cell line stably transfected with RXFP2 (HEK-CRE-Luc-RXFP2), as this cell line expresses luciferase under the control of the cAMP response element (CRE). Activation of the RXFP2 receptor increases intracellular cAMP levels, inducing luciferase transcription in the nucleus. Thus, luciferase activity in these cells is proportional to cAMP accumulation. For this assay, cells were seeded in 96-well flat-bottom opaque plates at 20,000 cells/well in 60 μL/well of serum-free DMEM medium and allowed to attach overnight at 37° C., 5% CO2. The next morning, cells were treated with 1 μL/well of compound (25 μM-0.21 nM), 1 μM forskolin, or DMSO vehicle. Cells were also treated with 4 μL of INSL3 (100-0.01 nM) (Phoenix Pharmaceuticals, Burlingame, CA) or vehicle serum-free DMEM. Cells were incubated with the treatments for 3 hours at 37° C., 5% CO2, then rested 30 minutes at room temperature for equilibration, after which 65 μL/well of substrate AMPLITE™ Luciferase Reporter Gene Assay Kit (AAT Bioquest, Sunnyvale, CA) was added. Plates were incubated for 40 minutes at room temperature protected from light, and then luciferase output was read on a CLARIOstar plate reader (BMG Labtech, Germany). […]

WT RXFP2 = molecular target: T2, WT RXFP2 (Homo sapiens, UniProt Q8WXD0); test: HTRF cAMP assay in HEK293T cells transiently transfected with WT RXFP2; type: cell-based
T2 construct: using full-length human RXFP1 and RXFP2 receptor constructs; FLAG; expressed in transfected cells; host or cells: HEK293T (transient, Lipofectamine2000)
T2 sequence (Q8WXD0 whole entry): as above
Description: (§2) To further investigate the involvement of the RXFP2 extracellular and transmembrane domains in agonist activation of the receptor, two complementary chimeras were created using the RXFP1 receptor, which is not activated by the agonists of formula (I), to transiently transfect HEK293T cells and measured changes in cAMP induction using the HTRF assay.
(§3) Chimeric receptors were generated by IN-FUSION™ (Takara Bio USA, Inc., San Jose, CA) mutagenesis using full-length human RXFP1 and RXFP2 receptor constructs. Polymerase chain reaction (PCR) was performed using PfuTurbo high-fidelity DNA polymerase (Agilent Technologies, Santa Clara, CA) and overlapping primers with at least 15 bp sequence homology within the fusion site. PCR products were digested with Dpnl restricton enzyme at 37° C. overnight, run on a 0.8% agarose gel and purified using the GENEJET™ Gel extraction kit (Thermo Scientific, Waltham, MA). The purified DNA fragments were then ligated into the BamHI and XhoI pre-digested pcDNA3.1™/Zeo(+) AmpR mammalian expression vector using the In-Fusion HD enzyme premix (Clontech, Mountain View, CA) at 50° C. for 15 minutes, and the resulting product was used to transform Stellar competent cells (Takara Bio USA, Inc., San Jose, CA). The clones were fully sequenced to confirm the correct fusion of both receptor fragments. Chimera RXFP2-1 contained the extracellular domain of RXFP2 and the transmembrane domain of RXFP1. Accordingly, chimera RXFP1-2 contained the extracellular domain of RXFP1 and the transmembrane domain of RXFP2.
(§4) HEK293T cells were seeded in 6-well flat-bottom clear plates at 0.5 million cells/well in 2 mL/well of growth medium (DMEM, 10% FBS, 1× Pen/Strep) and allowed to attach overnight at 37° C. and 5% CO2. The next morning, cells were transfected with 2 μg of plasmid (chimeric receptors, WT RXFP2, or WT RXFP1) and 6 μl of Lipofectamine2000 (Invitrogen, Waltham, MA) in a total volume of 200 μl/well OPTI-MEM™ I (Thermo Fisher, Waltham, MA) reduced serum medium and allowed to incubate an additional 24 hours. The next day, transfected cells were seeded in 96-well flat-bottom opaque plates at 30,000 cells/well in 60 μL/well of serum-free DMEM medium and allowed to attach overnight at 37° C. at 5% CO2. The next morning, cells were treated with 1 μL/well of compound (25 μM-0.25 nM), 2 μM forskolin, or DMSO vehicle. Cells were also treated with 4 μL of positive control INSL3 (100-0.01 nM), Relaxin2 (100-10 nM), or vehicle (serum-free DMEM+IBMX). Plates were incubated for 1 hour at 37° C. and 5% CO2, after which kit cAMP-d2 and anti-cAMP antibody were added as previously described. Cells were incubated for 1 hour at room temperature, and then the signal was read on a CLARIOstar plate reader (BMG Labtech, Germany).

[4] = test system: chimera RXFP1-2 (extracellular domain of RXFP1, transmembrane domain of RXFP2); test: HTRF cAMP assay in HEK293T cells transiently transfected with chimera RXFP1-2; type: cell-based, human
Description: as §2, §3, §4

[5] = test system: chimera RXFP2-1 (extracellular domain of RXFP2, transmembrane domain of RXFP1); test: HTRF cAMP assay in HEK293T cells transiently transfected with chimera RXFP2-1; type: cell-based, human
Description: as §2, §3, §4

[6] = condition (b): 10,000 cells/well, IBMX 200 μM
[7] = condition (c): 7,500 cells/well, IBMX omitted

Compound: O=C1Nc2ccc(-c3cccc(C(F)(F)F)c3)cc2C(=O)N2CCN(CCOc3ccccc3)CC12 (stereo not drawn) [Example 231, 2-(2-phenoxyethyl)-8-(3-(trifluoromethyl)phenyl)-1,3,4,12a-tetrahydrobenzo[e]pyrazino[1,2-a][1,4]diazepine-6,12 (2H, 11H)-dione]
% EFF vs. 1 nM INSL3 (a) (RXFP2 [2]; condition (a): 20,000 cells/well, IBMX 200 μM, maximum cAMP response normalized to 1 nM INSL3 response): 0.04%

Compound: O=C1Nc2ccc(-c3cc(C(F)(F)F)cc(C(F)(F)F)c3)cc2CN2CCN(C(=O)COc3ccc(OC(F)(F)F)cc3I)C[C@@H]12 [Example 254, (S)-8-(3,5-bis(trifluoromethyl)phenyl)-2-(2-(2-iodo-4-(trifluoromethoxy)phenoxy)acetyl)-1,3,4,6,11,12a-hexahydrobenzo[e]pyrazino[1,2-a][1,4]diazepin-12 (2H)-one]
EC50 (RXFP2 [2]; [7]): 8610 nM
% EFF vs. 100 nM INSL3 (c) (RXFP2 [2]; [7]): 49.35%

Compound: O=C1Nc2ccc(-c3cc(O)cc(C(F)(F)F)c3F)cc2C(=O)N2CCN(C(=O)COc3ccc(OC(F)(F)F)cc3Br)C[C@@H]12 [Example 259, (S)-2-(2-(2-bromo-4-(trifluoromethoxy)phenoxy)acetyl)-8-(2-fluoro-5-hydroxy-3-(trifluoromethyl)phenyl)-1,3,4,12a-tetrahydrobenzo[e]pyrazino[1,2-a][1,4]diazepine-6,12 (2H, 11H)-dione]
EC50 (RXFP2 [2]; [7]): 62.1 nM
% EFF vs. 100 nM INSL3 (c) (RXFP2 [2]; [7]): 67.97%

Compound: I: PTPEMREKLCGHHFVRALVRVCGGPRWSTEA / II: AAATNPARYCCLSGCTQQDLLTLCPY (disulfide I:10-II:11, I:22-II:24, II:10-II:15) [INSL3]
Emax (WT RXFP2; HEK-293T, normalized to 2 μM forskolin cAMP response as 100% activity): 78.4 ± 11.2%
EC50 (WT RXFP2; read-out: EC50 (μM or nM)): 0.0005 ± 0.00035 µM
cAMP response of chimera RXFP1-2 [4]: did not respond
cAMP response of chimera RXFP2-1 [5]: levels comparable to WT RXFP2
Emax ([5]; RXFP2-1 chimera, normalized to 2 μM forskolin cAMP response as 100% activity): 92.30 ± 21.82%
EC50 ([5]; RXFP2-1 chimera, read-out: EC50 (μM or nM)): 0.00074 ± 0.00061 µM

Now from value to compound, other results behind:

EC50 (RXFP2 [2]; [6]): 23.6 to 50.2 nM
% EFF vs. 1 nM INSL3 (b) (RXFP2 [2]; [6]): 149.80-150.94%
EC50 (RXFP2 [2]; [7]): 101 to 319 nM
% EFF vs. 100 nM INSL3 (c) (RXFP2 [2]; [7]): 45.16-86.79%
EC50 (RXFP2 [3]; 3 h treatment, 25 μM-0.21 nM): 24.6 nM
Emax (% Eff vs. 10 nM INSL3) (RXFP2 [3]; relative to 10 nM INSL3 response): 109.6%
Compound: Cc1cc(-c2ccc3c(c2)C(=O)N2CCN(C(=O)COc4ccc(OC(F)(F)F)cc4Br)C[C@H]2C(=O)N3)cc(C(F)(F)F)c1 [Example 153, (S)-2-(2-(2-bromo-4-(trifluoromethoxy)phenoxy)acetyl)-8-(3-methyl-5-(trifluoromethyl)phenyl)-1,3,4,12a-tetrahydrobenzo[e]pyrazino[1,2-a][1,4]diazepine-6,12 (2H, 11H)-dione]
cytotoxicity (HEK293T cells): some toxicity
cytotoxicity ([1]; 25 μM): minimal toxicity
cytotoxicity ([1]; lower concentrations than 25 μM): not toxic

EC50 (RXFP2 [2]; [7]): 77.8 nM
% EFF vs. 100 nM INSL3 (c) (RXFP2 [2]; [7]): 77.31%
Compound: O=C1Nc2ccc(-c3cc(C4CC4)cc(C(F)(F)F)c3)cc2C(=O)N2CCN(C(=O)COc3ccc(OC(F)(F)F)cc3I)C[C@@H]12 [Example 192, (S)-8-(3-cyclopropyl-5-(trifluoromethyl)phenyl)-2-(2-(2-iodo-4-(trifluoromethoxy)phenoxy)acetyl)-1,3,4,12a-tetrahydrobenzo[e]pyrazino[1,2-a][1,4]diazepine-6,12 (2H, 11H)-dione]

EC50 (RXFP2 [2]; [6]): 9.7 nM
% EFF vs. 1 nM INSL3 (b) (RXFP2 [2]; [6]): 59.15%
Compound: O=C1Nc2ccc(-c3cccc(C(F)(F)F)c3)cc2C(=O)N2CCN(C(=O)COc3ccc(C(F)(F)F)cc3Cl)C[C@@H]12 [Example 255, (S)-2-(2-(2-chloro-4-(trifluoromethyl)phenoxy)acetyl)-8-(3-(trifluoromethyl)phenyl)-1,3,4,12a-tetrahydrobenzo[e]pyrazino[1,2-a][1,4]diazepine-6,12 (2H, 11H)-dione]
